The text below walks through data of paper PMC10359466, “Identification of a small-molecule inhibitor that selectively blocks DNA-binding by Trypanosoma brucei replication protein A1” (Nature Communications, 2023).

The structures appear in SMILES notation. “Also recorded” adds a separate entry of the source. Where two headings read alike, the source gives them in different places.

The target of one experiment is T1, HsRPA complex (Homo sapiens, UniProt P27694).
T1 construct: made in house; host or cells: E. coli BL21
The experiment is described as follows: EMSA inhibition of ssDNA binding, HsRPA complex. A general note: In EMSA bound probe runs differently from free probe, usually more slowly.

A further experiment deals with T2, TcRPA1 DBD-AB T105S (Trypanosoma cruzi, UniProt Q4DXC9, T105S).
T2 sequence (Q4DXC9 1-247 T105S): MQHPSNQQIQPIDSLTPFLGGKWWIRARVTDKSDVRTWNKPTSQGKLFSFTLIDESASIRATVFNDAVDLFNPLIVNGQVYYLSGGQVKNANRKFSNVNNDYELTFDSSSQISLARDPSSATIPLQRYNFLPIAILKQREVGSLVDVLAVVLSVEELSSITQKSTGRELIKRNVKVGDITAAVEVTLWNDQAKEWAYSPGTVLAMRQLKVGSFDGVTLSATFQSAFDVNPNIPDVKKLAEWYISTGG
The experiment is described as follows: MST inhibition of ssDNA-binding activity, TcRPA1 DBD-AB T105S mutant. Further details: species or system T. cruzi. The source says: (§1) Samples were then loaded into MST capillaries.
(§2) We used one site binding to obtain a dissociation constant (Kd) and standard 4-parameter logistic curve (Sigmoidal curve) analysis to obtain the IC50 value of JC-229. We used GraphPad Prism software.

Experiment [1] concerns the target T3, HsRPA1 DBD-AB (Homo sapiens, UniProt P27694).
T3 construct: were generated by PCR-amplifying the DBD-AB domain and cloning into a pET28a vector; made in house; host or cells: E. coli BL21
The experiment is described as follows: MST inhibition of ssDNA-binding activity, HsRPA1 DBD-AB. The following applies: dT32, MST.
Excerpt: as §1, §2

Experiment [2] concerns TbRPA1, γH2A, VSG3 protein levels in T. brucei cells. The experiment can be described thus: Immunoblotting of TbRPA1, γH2A, VSG3. Type of experiment: cell-based, Trypanosoma brucei. Conditions: 10 µM. The source says: Cells were harvested at indicated time points and suspended in Laemmli buffer (Bio-Rad) at 0.25 million cells per µl. Denatured proteins from whole cells were separated on a 4–20% gradient SDS-PAGE gel (Bio-Rad) and transferred to a nitrocellulose membrane (GE Healthcare). The membranes were probed with polyclonal antibodies against TbRPA1 (a gift from Bibo Li laboratory, ProSci Inc., ID: 21371, dilution factor 1:1,000) or γH2A (generated by ABclonal for this study, antibody ID E16070 (P), dilution factor 1:1,000), or monoclonal mouse antibodies against VSG3 (Antibody and Bioresource Core facility, MSKCC, catalog number cloneVSG224-11D6, lot EQ.11-Pur.-A, dilution factor 1:1,000) or Tubulin (Sigma, catalog number T7451, clone 6-11B-1, lot 0000149704, dilution 1:5000) in 1x PBS with 0.1% Tween 20 and 1% milk (Bio-Rad) at 4 °C overnight. The membranes were then incubated with secondary antibodies conjugated with Horseradish Peroxidase (HRP) (GE Healthcare; Rabbit HRP: catalog number NA934V, lot 17640116; Mouse HRP: catalog number NA931V, lot 17041904, dilution 1:5000) for the detection of corresponding proteins using chemiluminescence (Hyglo ELC solution from Denville Scientific, catalog number E2400; ChemiDoc Imaging System from Bio-Rad).

In a further experiment the target is TbRPA complex (Trypanosoma brucei brucei, UniProt Q384B5). The experiment can be described thus: EMSA inhibition of ssDNA binding, TbRPA complex.
The target of experiment [3] is T3, HsRPA1 DBD-AB. The experiment is described as follows: EMSA inhibition of ssDNA binding, HsRPA1 DBD-AB. Conditions: highest concentration 80 µM.
The target in experiment [4] is TcRPA1 DBD-AB. The experiment can be described thus: MST inhibition of ssDNA-binding activity, TcRPA1 DBD-AB. The following applies: dT32, 30 nM protein. Details: species or system T. cruzi.
Excerpt: as §1, §2

For another experiment, the target named is TbRPA1 DBD-AB S105T. The experiment is described as follows: MST inhibition of ssDNA-binding activity, TbRPA1 DBD-AB S105T mutant. Further details: species or system T. brucei. Conditions: dT32, 30 nM protein.
Excerpt: as §1, §2

Experiment [5] has as its system TbRPA complex containing S105T mutation. Type of experiment: binding, T. brucei. Conditions: dT32.
Experiment [6] has as its system T. brucei TbRPA1 sKO cells. The experiment is described as follows: AlamarBlue cytotoxicity on TbRPA1 single knock-out (sKO) T. brucei cells. On the technique in general: Alamar Blue is a resazurin reagent that responds to reducing activity.
Description: To determine the viability of TbRPA1-depleted cells, we carried out the AlamarBlue assay (Thermo Fisher, catalog number A50101), an established colorimetric technique that detects metabolically active cells by measuring resorufin converted from resazurin by reducing the environment of live cells[70]. Cells from each time point were incubated with AlamarBlue dye for 4–6 h, and the percentage of live cells was determined[70]. Synergy H1 microplate reader (BioTek) was used with 560/590 nm (excitation/emission) filter settings and relative fluorescence unit (RFU) values were obtained. The percentage of viable cells were calculated from the RFU values.
Experiment [7] deals with LmexRPA1 DBD-AB. The experiment is described as follows: MST inhibition of ssDNA-binding activity, LmexRPA1 DBD-AB. The following applies: dT32, MST. Details: species or system L. mexicana.
Excerpt: as §1, §2

The target in another experiment is TbRPA1 DBD-AB (Trypanosoma brucei brucei, UniProt Q384B5). The experiment is described as follows: MST inhibition of ssDNA-binding activity, TbRPA1 DBD-AB. Conditions: 4-PL.
Excerpt: as §1, §2

Experiment [8] concerns LmexRPA1 DBD-AB. The experiment is described as follows: EMSA inhibition of ssDNA binding, LmexRPA1 DBD-AB. Further details: species or system L. mexicana. The procedure: Increasing concentrations of recombinant protein (from 0.05 to 100 nM) were incubated with 2 nM of 5´IRDye800-labeled oligo in binding buffer (20 mM Tris, pH 7.5, 10 mM NaCl, 10 mM MgCl2, 2 mM dithiothreitol (DTT), 10% glycerol, and 0.1 mg/ml BSA) for 15 min at room temperature. About 4 μl of 6x Orange dye (Sigma) was added to the 20 μl reaction, and from that, 8 μl was separated on a non-denaturing polyacrylamide gel in 1x Tris-Borate-EDTA (TBE, Invitrogen) buffer; 4% gel for RPA complex and 8% for DBD-AB, DBD-A, or DBD-B proteins. Gels were pre-run for 1 h at a constant 100 V. Protein–ssDNA complex and unbound ssDNA were separated by running the gel at a constant 80 V at 4 °C in the dark and then visualized using LI-COR Odyssey imaging system and quantified with ImageJ software.
Samples were separated on a non-denaturing polyacrylamide gel and analyzed as described above in ssDNA-binding assay.

Experiment [9] deals with TcRPA1 DBD-AB. The experiment can be described thus: EMSA inhibition of ssDNA binding, TcRPA1 DBD-AB. Further details: species or system T. cruzi.

T3 sequence (P27694 181-427 limits assumed): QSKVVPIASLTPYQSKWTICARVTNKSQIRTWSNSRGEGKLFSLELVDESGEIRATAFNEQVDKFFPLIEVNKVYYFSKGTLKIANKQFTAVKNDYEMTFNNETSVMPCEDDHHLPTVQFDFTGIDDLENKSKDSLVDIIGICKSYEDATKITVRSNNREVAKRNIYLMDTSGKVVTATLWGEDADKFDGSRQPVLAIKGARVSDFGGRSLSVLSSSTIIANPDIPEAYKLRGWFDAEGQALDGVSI
TbRPA1 DBD-AB, sequence (Q384B5 entry or part of it): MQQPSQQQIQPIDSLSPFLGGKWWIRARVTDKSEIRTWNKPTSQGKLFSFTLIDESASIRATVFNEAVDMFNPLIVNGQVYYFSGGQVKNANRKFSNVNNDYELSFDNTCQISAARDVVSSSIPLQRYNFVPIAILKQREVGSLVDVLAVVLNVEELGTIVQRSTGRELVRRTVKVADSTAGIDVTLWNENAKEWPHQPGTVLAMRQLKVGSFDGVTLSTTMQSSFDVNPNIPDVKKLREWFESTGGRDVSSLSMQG
T1 sequence (P27694 whole entry): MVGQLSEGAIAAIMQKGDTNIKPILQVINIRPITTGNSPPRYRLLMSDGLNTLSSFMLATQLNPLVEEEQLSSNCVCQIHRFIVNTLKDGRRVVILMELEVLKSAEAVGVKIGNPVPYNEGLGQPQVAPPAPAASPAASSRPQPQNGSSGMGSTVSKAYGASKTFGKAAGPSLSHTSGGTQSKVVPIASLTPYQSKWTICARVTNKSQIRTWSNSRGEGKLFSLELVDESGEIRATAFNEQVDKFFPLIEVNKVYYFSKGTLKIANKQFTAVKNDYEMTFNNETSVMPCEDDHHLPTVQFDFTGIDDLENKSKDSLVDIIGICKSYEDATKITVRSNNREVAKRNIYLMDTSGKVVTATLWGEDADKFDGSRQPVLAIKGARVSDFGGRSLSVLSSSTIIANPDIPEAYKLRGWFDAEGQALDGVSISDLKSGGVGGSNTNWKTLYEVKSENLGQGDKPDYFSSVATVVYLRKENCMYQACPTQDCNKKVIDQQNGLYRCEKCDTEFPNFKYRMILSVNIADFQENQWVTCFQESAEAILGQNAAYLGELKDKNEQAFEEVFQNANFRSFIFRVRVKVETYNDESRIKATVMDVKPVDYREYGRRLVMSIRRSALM
T1 sequence (P15927 whole entry partner): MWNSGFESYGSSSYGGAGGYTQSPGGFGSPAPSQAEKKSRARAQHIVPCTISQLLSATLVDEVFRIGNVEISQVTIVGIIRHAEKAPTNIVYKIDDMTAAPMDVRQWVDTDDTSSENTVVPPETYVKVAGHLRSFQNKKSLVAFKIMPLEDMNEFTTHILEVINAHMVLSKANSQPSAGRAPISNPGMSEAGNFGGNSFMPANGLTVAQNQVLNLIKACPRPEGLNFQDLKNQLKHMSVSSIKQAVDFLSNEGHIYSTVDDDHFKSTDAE
T1 sequence (P35244 whole entry partner): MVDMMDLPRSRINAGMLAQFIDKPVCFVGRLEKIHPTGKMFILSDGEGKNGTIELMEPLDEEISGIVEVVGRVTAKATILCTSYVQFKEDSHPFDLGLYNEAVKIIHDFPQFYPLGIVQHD
TbRPA complex, sequence (Q38DK0 entry or part of it): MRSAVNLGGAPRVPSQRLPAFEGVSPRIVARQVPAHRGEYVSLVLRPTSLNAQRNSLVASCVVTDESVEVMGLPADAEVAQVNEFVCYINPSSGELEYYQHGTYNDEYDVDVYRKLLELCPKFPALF
TbRPA complex, sequence (Q57ZN9 entry or part of it, further chain): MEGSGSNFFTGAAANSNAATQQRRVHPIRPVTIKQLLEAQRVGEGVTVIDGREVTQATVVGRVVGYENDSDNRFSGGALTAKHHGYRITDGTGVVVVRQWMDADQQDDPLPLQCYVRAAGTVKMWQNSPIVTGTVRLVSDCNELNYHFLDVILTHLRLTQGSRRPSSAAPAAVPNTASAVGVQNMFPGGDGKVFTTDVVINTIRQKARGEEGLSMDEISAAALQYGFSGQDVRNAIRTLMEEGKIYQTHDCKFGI
TbRPA complex, sequence (Q384B5 entry or part of it): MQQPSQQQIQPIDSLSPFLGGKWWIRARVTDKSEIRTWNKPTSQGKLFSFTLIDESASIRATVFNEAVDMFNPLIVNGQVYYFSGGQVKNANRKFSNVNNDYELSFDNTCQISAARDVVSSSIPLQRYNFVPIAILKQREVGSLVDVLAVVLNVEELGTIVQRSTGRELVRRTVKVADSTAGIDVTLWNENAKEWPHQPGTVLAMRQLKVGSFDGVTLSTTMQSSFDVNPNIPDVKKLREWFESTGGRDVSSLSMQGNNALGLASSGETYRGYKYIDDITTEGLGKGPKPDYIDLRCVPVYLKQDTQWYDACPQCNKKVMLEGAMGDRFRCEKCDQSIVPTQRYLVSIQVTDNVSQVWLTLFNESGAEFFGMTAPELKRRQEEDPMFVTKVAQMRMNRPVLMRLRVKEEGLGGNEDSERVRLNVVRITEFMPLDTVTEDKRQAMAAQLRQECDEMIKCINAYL

For `Cc1ccc(C(=O)Nc2ccc(Cl)c(Cl)c2)cc1S(=O)(=O)Nc1ccc(Cl)c(Cl)c1` [JC-229, N-(3,4-dichlorophenyl)−3-(N-(3,4-dichlorophenyl)sulfamoyl)−4-methylbenzamide], the “Effect on binding of HsRPA complex to ssDNA (EMSA)” value on HsRPA complex is reported as “no effect”. Also, the IC50 (in general, the concentration at which inhibition is half-maximal) at TcRPA1 DBD-AB T105S was 159 µM; on TbRPA1 DBD-AB (dT12, 30 nM protein), 2.8 µM; at TbRPA1 DBD-AB (dT20, 30 nM protein), 0.881 µM; at TbRPA1 DBD-AB (dT32, 30 nM protein), 0.228 µM. Moreover, the “IC50, inhibition of HsRPA1 DBD-AB ssDNA binding” value on HsRPA1 DBD-AB [1] is listed as “No inhibition; also recorded: no inhibitory effect”. Besides, the “Levels of VSG3” value in [2] was “increased”. Further, the “Levels of γH2A” value in experiment [2] is listed as “increased”. For the same compound, in experiment [2], the TbRPA1 protein levels entry was “did not change”. On TbRPA complex, the “Inhibition of TbRPA complex binding to ssDNA (EMSA)” value is listed as “inhibited”. In addition, the “Inhibition of ssDNA binding of HsDBD-AB (EMSA)” value at HsRPA1 DBD-AB [3] is listed as “did not inhibit”. The “IC50, inhibition of TcRPA1 DBD-AB ssDNA binding” value on TcRPA1 DBD-AB [4] is reported as “No inhibition; also recorded: did not inhibit”. Also, the “IC50, inhibition of TbRPA1 DBD-AB S105T ssDNA binding” value at TbRPA1 DBD-AB S105T is recorded as “No inhibition; also recorded: did not inhibit”. In addition, the “Effect on ssDNA binding of TbRPA S105T mutant complex (EMSA)” value in experiment [5] was “not affected”. Also, the EC50 in [6] (Trypanosoma brucei, 72 h, read-out: EC50, single KO (∆/WT), 72 h, [Inhibitor] vs. norm response, variable slope) was determined as 4.93 µM; in experiment [6] (Trypanosoma brucei, read-out: EC50, single KO (∆/WT), Suppl. Table 5-B, Sigmoidal, 4-PL) it was 4.61 µM; in experiment [6] (read-out: EC50, single KO (∆/WT), 72 h, [Inhibitor] vs. norm response, variable slope), 5 µM. Besides, the “IC50, inhibition of LmexRPA1 DBD-AB ssDNA binding” value on LmexRPA1 DBD-AB [7] is “No inhibition; also recorded: did not inhibit”. The “Inhibition of LmexRPA1 DBD-AB ssDNA binding (EMSA)” value in the experiment with LmexRPA1 DBD-AB [8] is reported as “did not inhibit”. Moreover, in the experiment on TcRPA1 DBD-AB [9], the “Inhibition of TcRPA1 DBD-AB ssDNA binding (EMSA)” value was “did not inhibit”.
